In ChEMBL document CHEMBL3272144, “Application of the Free-Wilson technique to structurally related series of homologues. Quantitative structure-activity relationship studies of narcotic analgetics” (1977):

Species: Mus musculus
Test: Analgesic activity in mouse by hot-plate method
Format: functional

| Structure (SMILES) | log(1/C) |
| --- | --- |
| CCC[C@@]12CCN(C)C(Cc3ccc(O)cc31)[C@@H]2C (stereo in doubt; 25) | 2.57 |
| CC[C@H]1C2Cc3ccc(O)cc3[C@@]1(C)CCN2C (stereo in doubt; 21) | 2.62 |
| COc1ccc2c(c1)[C@@]1(C)CCN(C)C(C2)[C@@H]1C | 1.87 |
| CCC[C@@]12CCN(CCc3ccccc3)C(Cc3ccc(O)cc31)[C@@H]2C (mixture of isomers) | 2.92 |
| C[C@H]1C2Cc3ccc(O)cc3[C@@]1(C)CCN2CCc1ccccc1 (stereo in doubt; 2) | 3.83 |
| CC(C)=CCN1CC[C@]2(C)c3cc(O)ccc3CC1[C@@H]2C | 1.53 |
| COc1ccc2c(c1)[C@@]1(C)CCN(C)C(C2)C1 (mixture of isomers) | 1.64 |
| CC(=O)Oc1ccc2c(c1)[C@@]1(C)CCN(CCC(=O)c3ccccc3)C(C2)[C@@H]1C (mixture of isomers) | 2.49 |
| C[C@H]1C2Cc3ccc(OC(=O)c4cccnc4)cc3[C@@]1(C)CCN2CCc1ccccc1 | 3.68 |
| CC[C@@]12CCN(C)C(Cc3ccc(OC)cc31)[C@@H]2OC(C)=O (mixture of isomers) | 1.48 |
| CC[C@@]12CCN(C)C(Cc3ccc(O)cc31)C2 (stereo in doubt; 20) | 2.62 |
| CC[C@@]12CCN(C)C(Cc3ccc(OC)cc31)[C@@H]2O (mixture of isomers) | 0.99 |
| CC[C@H]1C2Cc3ccc(O)cc3[C@@]1(CC)CCN2C (stereo in doubt; 30) | 2.35 |
| C[C@@H]1C2Cc3ccc(O)cc3[C@@]1(C)CCN2C (stereo in doubt; 9) | 3.22 |
| CC[C@@]12CCN(C)C(Cc3ccc(O)cc31)[C@]2(C)OC(C)=O (mixture of isomers) | 2.78 |
| CCC[C@@]12CCN(C)C(Cc3ccc(O)cc31)[C@@H]2C (stereo in doubt; 94) | 1.38 |
| CN1CC[C@@]2(C)CC1Cc1ccccc12 (mixture of isomers) | 1.33 |
| CC[C@@]12CCN(CCc3ccccc3)C(Cc3ccc(O)cc31)C2 (mixture of isomers) | 3.66 |
| C[C@H]1[C@H]2Cc3ccc(O)cc3[C@@]1(C)CCN2CC1CC1 (racemic) | 1.37 |
| C[C@H]1C2Cc3ccc(F)cc3[C@@]1(C)CCN2C (mixture of isomers) | 1.08 |
| CCC[C@@]12CCN(C)C(Cc3ccc(O)cc31)[C@H]2C (mixture of isomers) | 3.45 |
| C[C@@]12CCN(CCc3ccccc3)C(Cc3ccc(O)cc31)[C@@H]2O (mixture of isomers) | 2.99 |

| Structure (SMILES) | log(1/C) |
| --- | --- |
| CC[C@H]1C2Cc3ccc(OC)cc3[C@@]1(CC)CCN2C (stereo in doubt; 42) | 1.81 |
| CC(C)=CCN1CC[C@]2(C)c3cc(O)ccc3CC1[C@H]2C | 1.7 |
| C[C@H]1C2Cc3ccccc3[C@@]1(C)CCN2C (mixture of isomers) | 1.27 |
| CN1CC[C@]2(C)c3ccccc3CC1[C@]2(C)O (mixture of isomers) | 1.16 |
| CC(=O)Oc1ccc2c(c1)[C@@]1(C)CCN(C)C(C2)[C@]1(C)OC(C)=O (mixture of isomers) | 2.66 |
| C[C@H]1C2Cc3ccc(O)cc3[C@@]1(C)CCN2C | 2.71 |
| CC[C@@H]1C2Cc3ccc(O)cc3[C@@]1(CC)CCN2C (stereo in doubt; 95) | 1.31 |
| C[C@@H]1C2Cc3ccc(O)cc3[C@@]1(c1ccccc1)CCN2C (stereo in doubt; 8) | 3.26 |
| CC[C@@]12CCN(C)C(Cc3ccc(O)cc31)[C@H]2C | 3.92 |
| C[C@H]1C2Cc3ccc(O)cc3[C@@]1(C)CCN2CCc1cccs1 (mixture of isomers) | 4.04 |
| C[C@H]1C2Cc3ccccc3[C@@]1(O)CCN2C (mixture of isomers) | 0.75 |
| CC[C@@H]1C2Cc3ccccc3[C@@]1(CC)CCN2C (mixture of isomers) | 1.8 |
| CCC[C@@]12CCN(C)C(Cc3ccc(O)cc31)C2 (mixture of isomers) | 2.43 |
| C[C@H]1C2Cc3ccc(Cl)cc3[C@@]1(C)CCN2C (mixture of isomers) | 0.83 |
| CC[C@@]12CCN(C)C(Cc3ccc(OC(C)=O)cc31)[C@@H]2OC(C)=O (mixture of isomers) | 2.53 |
| COc1ccc2c(c1)[C@@]1(C)CCN(C)C(C2)[C@@]1(C)O | 1.48 |
| CC[C@H]1C2Cc3ccc(O)cc3[C@@]1(C)CCN2C (stereo in doubt; 97) | 1.2 |
| COc1ccc2c(c1)[C@@]1(C)CCN(C)C(C2)[C@H]1O (mixture of isomers) | 1.14 |
| CCCC(=O)Oc1ccc2c(c1)[C@@]1(C)CCN(C)C(C2)C1 (mixture of isomers) | 1.92 |
| COc1ccc2c(c1)[C@@]1(c3ccccc3)CCN(C)C(C2)[C@H]1C | 2.14 |
| CC[C@H]1C2Cc3ccc(O)cc3[C@@]1(CC)CCN2C (stereo in doubt; 93) | 1.51 |
| CN1CC[C@]2(C)c3cc(O)ccc3CC1[C@]2(C)O (mixture of isomers) | 1.89 |

| Structure (SMILES) | log(1/C) |
| --- | --- |
| CC(=O)O[C@H]1C2Cc3ccccc3[C@@]1(C)CCN2C (mixture of isomers) | 1.37 |
| C=CC#CCN1CC[C@]2(CC)c3cc(O)ccc3CC1[C@@H]2CC (stereo in doubt; 72) | 3.7 |
| CC[C@@H]1C2Cc3ccc(O)cc3[C@@]1(C)CCN2C (mixture of isomers) | 3.07 |
| CN1CC[C@]2(C)c3cc(O)ccc3CC1[C@@H]2O (mixture of isomers) | 0.9 |
| CN1CC[C@]2(C)c3cc(O)ccc3CC1[C@@]2(C)O (mixture of isomers) | 2.15 |
| CCC(=O)Oc1ccc2c(c1)[C@@]1(C)CCN(C)C(C2)C1 (mixture of isomers) | 1.98 |
| COc1ccc2c(c1)[C@@]1(C)CCN(CCc3ccccc3)C(C2)[C@@H]1O (mixture of isomers) | 1.58 |
| CCC[C@@]12CCN(C)C(Cc3ccccc31)[C@H]2C (mixture of isomers) | 1.76 |
| C[C@@H]1C2CCN(CCc3ccccc3)C1Cc1ccc(O)cc12 (mixture of isomers) | 3.21 |
| CC(=O)Oc1ccc2c(c1)[C@H]1CCN(C)C(C2)C1 (mixture of isomers) | 1.57 |
| COc1ccc2c(c1)[C@@]1(C)CCN(CCc3ccccc3)C(C2)[C@@H]1C | 2.66 |
| CC[C@@]12CCN(C)C(Cc3ccc(O)cc31)[C@@H]2C (mixture of isomers) | 2.06 |
| C=CC#CCN1CC[C@]2(CC)c3cc(O)ccc3CC1[C@@H]2CC (stereo in doubt; 90) | 1.79 |
| CCCC[C@@]12CCN(C)C(Cc3ccc(O)cc31)C2 (mixture of isomers) | 2.17 |
| CC[C@@]12CCN(C)C(Cc3ccc(O)cc31)[C@@]2(C)O (mixture of isomers) | 2.61 |
| CC[C@@]12CCN(C)C(Cc3ccc(O)cc31)C2 (stereo in doubt; 99) | 1.03 |
| CCC[C@@H]1C2Cc3ccc(O)cc3[C@@]1(CCC)CCN2C (mixture of isomers) | 2.88 |
| COc1ccc2c(c1)[C@@]1(C)CCN(C)C(C2)[C@]1(C)O (mixture of isomers) | 1.65 |
| C[C@@]12CCNC(Cc3ccc(O)cc31)[C@H]2O (mixture of isomers) | 0.88 |
| C[C@@H]1C2Cc3ccc(O)cc3[C@@]1(C)CCN2C (stereo in doubt; 92) | 1.6 |
| C[C@@]12CCN(CCc3ccccc3)C(Cc3ccccc31)C2 (mixture of isomers) | 1.26 |
| CN1CC[C@@]2(C)CC1Cc1ccc(O)cc12 (stereo in doubt; 98) | 1.04 |

| Structure (SMILES) | log(1/C) |
| --- | --- |
| CN1CC[C@@]2(C)CC1Cc1ccc(O)cc12 (stereo in doubt; 31) | 2.16 |
| CC[C@@]1(O)C2Cc3ccc(OC)cc3[C@@]1(C)CCN2C (mixture of isomers) | 1.87 |
| CC(=O)O[C@@]12CCN(C)C(Cc3ccccc31)C2 (mixture of isomers) | 1.64 |
| CC(=O)Oc1ccc2c(c1)[C@@]1(C)CCN(C)C(C2)[C@@H]1C (mixture of isomers) | 2.72 |
| CC[C@@H]1C2Cc3ccc(O)cc3[C@@]1(CC)CCN2C (stereo in doubt; 6) | 3.51 |
| CCCCCC[C@@]12CCN(C)C(Cc3ccc(O)cc31)[C@H]2CO (mixture of isomers) | 1.53 |
| CCCCC[C@@]12CCN(C)C(Cc3ccc(O)cc31)C2 (mixture of isomers) | 1.96 |
| CC[C@H]1C2Cc3ccc(OC(=O)c4cccnc4)cc3[C@@]1(CC)CCN2C (mixture of isomers) | 1.54 |
| CC[C@@]12CCN(C)C(Cc3ccc(OC(C)=O)cc31)[C@]2(C)OC(C)=O (mixture of isomers) | 2.82 |
| CN1CC[C@H]2CC1Cc1ccc(O)cc12 (stereo in doubt; 46) | 1.72 |
| c1ccc2c(c1)CC1C[C@@H]2CCN1 (mixture of isomers) | 1.31 |
| CCC[C@@]12CCN(C)C(Cc3ccccc31)[C@@H]2C (mixture of isomers) | 1.42 |
| CC[C@@]12CCN(C)C(Cc3ccc(O)cc31)[C@H]2O (mixture of isomers) | 1.67 |
| CN1CC[C@@]2(c3ccccc3)CC1Cc1ccccc12 (stereo in doubt; 44) | 1.77 |
| CC[C@H]1C2Cc3ccc(OC)cc3[C@@]1(CC)CCN2C (stereo in doubt; 91) | 1.62 |
| CN1CC[C@H]2CC1Cc1ccc(O)cc12 (stereo in doubt; 96) | 1.22 |
| CN1CC[C@H]2CC1Cc1ccccc12 (mixture of isomers) | 1.3 |
| CCC(=O)O[C@@]12CCN(C)C(Cc3ccccc31)C2 (mixture of isomers) | 1.43 |
| C[C@@H]1C2Cc3ccc(O)cc3[C@@]1(c1ccccc1)CCN2C (stereo in doubt; 88) | 1.99 |
| CN1CC[C@]2(C)c3ccccc3CC1[C@@H]2O (mixture of isomers) | 0.97 |
| C[C@H]1C2Cc3ccccc3[C@@]1(C)CCN2CCC(=O)c1ccccc1 (mixture of isomers) | 1.93 |
| C[C@@H]1C2Cc3ccccc3[C@@]1(C)CCN2C (mixture of isomers) | 1.82 |
